Results published in paper PMC4913735, “Non‐glycosidic compounds can stimulate both human and mouse iNKT cells” (European Journal of Immunology, 2016).

What was measured:
human iNKT cells = test: Human iNKT‐cell activation by lipid‐pulsed hCD1d C1R cells, IFN‐γ ELISA; type: cell-based; conditions: compared with α‐GalCer; particularly below 1 ng/mL
Experimental: To this end, hCD1d‐expressing C1R cells were loaded overnight with serial dilutions of lipids (α‐GalCer, ThrCer, ThrCer 6, and ThrCer 7) and then incubated with human iNKT cells. iNKT‐cell activation was assessed by measuring IFN‐γ production in the supernatant by ELISA.
Concentrations of murine IFN‐γ and IL‐4 in serum were determined using standard sandwich ELISAs using the R4‐6A2 capture Ab for IFN‐γ (eBioscience), and the ID11 capture Ab for IL‐4 (Endogen). Biotinylated XMG1.2 (eBioscience) was used as the detection Ab for IFN‐γ and biotinylated BVD6‐24G2 (eBioscience) was used as the detection Ab for IL‐4. Human IFN‐γ in supernatants was determined using the capture Ab NIB42 (BD Pharmingen) and biotinylated 4S.B3 (BD Pharmingen) as the detection Ab.
Human iNKT‐cells were expanded as described previously 34. […] The presence of IFN‐γ was detected in supernatants by ELISA 12. […] DC maturation was determined by the upregulation of CD86 by flow cytometry on a FACSCalibur with CellQuest software (BD) and analyzed with FlowJo software (Tree Star). For in vivo murine APC phenotype analysis the expression of CD86 or CD40 on CD11c^+ APCs from spleen were determined after 18 h post i.v. of 1 μg lipids on a CyAn cytometer and analyzed with FlowJo software (Tree Star).

[1] = test system: OVA‐specific CD8+ T cells; test: OVA‐specific CD8+ T‐cell response after OVA plus lipid i.v. (H‐2Kb/OVA257–264 tetramer); type: in vivo, mice
Experimental: In order to assess the downstream effect of treatment with low concentrations of lipid in vivo, mice were injected with the model antigen OVA together with two different doses of ThrCer 6 and α‐GalCer. Seven days later, OVA‐specific CD8^+ T cells were detected in the blood by H‐2 K^b/OVA257–264 tetramer staining of CD8^+ T cells.
(A and B) Mice were given 400 μg OVA together with i.v. injection of vehicle or 10 or 750 ng of either α‐GalCer or ThrCer 6. OVA‐specific CD8^+ T cells were enumerated in the blood using tetrameric H‐2K^b/OVA257–264 flow cytometry at (A) day 7 and at (B) day 12. Each square or circle represents the data for a single mouse (n = 4–6/group). Data shown as mean ± SEM and are representative of three independent experiments. **p = 0.0012, *p = 0.0114; Student's t‐test.
Mice were bled on day 7 post immunization of lipids and peripheral blood lymphocytes (PBL) stained with tetrameric H‐2 K^b/OVA257–264 peptide complexes, as previously described 27. A representative tetramer staining is shown in Supporting Information Figure 4.

iNKT hybridoma DN32.D3 = test: Lipid‐pulsed, washed BMDC stimulation of iNKT hybridoma DN32.D3 (IL‐2); type: cell-based, mouse; conditions: 10 and 1 ng agonist; up to 24 h after wash; compared with α‐GalCer
Experimental: The difference between the functional activity of ThrCer 6 and α‐GalCer, particularly noticeable at low concentrations, may be accounted for by differences in their bioavailability. To address this possibility, bone marrow (BM) derived DC were incubated with a range of different iNKT‐cell agonists at different concentrations overnight, then washed and incubated with fresh media for increasing lengths of time. Lipid‐pulsed DC were then used to stimulate the iNKT‐hybridoma DN32.D3 (Fig. 6A). […] The difference between the ThrCer 6 and ThrCer 7 analogs and α‐GalCer started to be evident as early as 3 h after lipid‐pulsed DC were washed (Fig. 6A).
Figure 6 Enhanced bioavailability of ThrCer 6 as compared to ThrCer and α‐GalCer. (A) Mouse BMDCs were pulsed for 6 h with 100, 10, or 1 ng/mL of indicated iNKT‐cell agonists. […] Diminished bioavailability is expressed as a percentage of the maximum DN32.D3 activation by each iNKT‐cell agonist. […] (B) IL‐2 in the supernatant from coculture of DN32.D3 with CD11c^+ cells isolated after 64 h was determined by ELISA. […] Significance was calculated between α‐GalCer and ThrCer 6. *p < 0.05, **p < 0.01, ***p < 0.001, ****p < 0.0001; Student's t‐test.
Levels of iNKT‐cell agonists, presented by CD1d on the surface of cells, were assessed by the amount of IL‐2 secreted by iNKT hybridoma DN32.D3 coincubated with the presenting cells for 17–24 h. […]

## CCCCCCCCCCCCCCCCCCCCCCCCCC(=O)N[C@@H](CO[C@H]1CC[C@H](O)[C@H](O)[C@H]1O)[C@H](O)[C@H](O)CCCCCCCCCCCCCC [ThrCer 6]
Human iNKT cells
  Activation of human iNKT cells (IFN‐γ in supernatant): greater activation of human iNKT cells
[1]; 10 ng i.v. with 400 μg OVA, day 7, compared with 10 ng α‐GalCer
  Frequency of OVA‐specific CD8+ T cells, 10 ng lipid: statistically significant higher frequency
[1]; 10 ng i.v. with OVA, day 12, higher frequency than α‐GalCer
  Frequency of OVA‐specific CD8+ T cells, 10 ng lipid, day 12: persisted at day 12
iNKT hybridoma DN32.D3
  Activation of DN32.D3 by lipid‐pulsed, washed BMDC: enhanced ability to activate DN32.D3

## CCCCCCCCCCCCCCCCCCCCCCCCCC(=O)NC(COC1CCCC(O)C(O)C1O)C(O)C(O)CCCCCCCCCCCCCC (centres unmarked) [ThrCer 7]
Human iNKT cells
  Activation of human iNKT cells (IFN‐γ in supernatant): greater activation of human iNKT cells
